Laboratory results published in patent publication US6608082B1, “Treatment of erectile dysfunction using isoquinoline compound melanocortin receptor ligands” (Lion Bioscience AG, priority 1998, dated 2003).
Like-named read-outs stand apart in the source and are kept apart here. Values belong to the compound of their own block, whether it stands above or below them.

Tests used:
MCR-1 = molecular target: T1, MCR-1 (Homo sapiens, UniProt Q01726); experiment: Melanocortin receptor binding assay, competition with 125I-HP 467, HEK 293 cells expressing hMCR-1; conditions: for IC50: read-out: MC-1 IC50; for % Disp. MC-1 10 μM: displacement of 125I-HP 467 at 10 μM isoquinoline compound
T1 construct: expressed in transfected cells; host or cells: HEK 293
In short: (§1)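 Test compounds compete on intact HEK 293 cells carrying hMCR-1 (2×10^4 per tube) or hMCR-4 (4×10^3 per tube), suspended in PBS, 10% calf serum, 1 mM CaCl2.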

MCR-4 = molecular target: T2, MCR-4 (Homo sapiens, UniProt P32245); experiment: Melanocortin receptor binding assay, competition with 125I-HP 467, HEK 293 cells expressing hMCR-4; conditions: read-out: MC-4 IC50
T2 construct: expressed in transfected cells; host or cells: HEK 293
In short: as §1

[1] = TRG 2414 library, inhibition of binding of 125I-HP 467, HEK 293 cells expressing MCR-1
[2] = TRG 2414 library, inhibition of binding of 125I-HP 467, HEK 293 cells expressing MCR-4
[3] = TRG 2406 and TRG 2407 libraries, inhibition of binding of 125I-HP 467
[4] = inhibition of binding of 125I-HP 467, HEK 293 cells expressing MCR-1
[5] = inhibition of binding of 125I-HP 467, HEK 293 cells expressing MCR-4
[6] = TRG 2408 and TRG 2409 libraries, inhibition of 125I-HP 467 binding
[7] = inhibition of binding of 125I-HP 467, HEK 293 cells expressing MCR-1, TRG 2414 library
[8] = inhibition of binding of 125I-HP 467, HEK 293 cells expressing MCR-4, TRG 2414 library
[9] = competition with 125I-HP 467, HEK 293 cells expressing MCR-1
[10] = competition with 125I-HP 467, HEK 293 cells expressing MCR-4

T1 sequence (Q01726 whole entry): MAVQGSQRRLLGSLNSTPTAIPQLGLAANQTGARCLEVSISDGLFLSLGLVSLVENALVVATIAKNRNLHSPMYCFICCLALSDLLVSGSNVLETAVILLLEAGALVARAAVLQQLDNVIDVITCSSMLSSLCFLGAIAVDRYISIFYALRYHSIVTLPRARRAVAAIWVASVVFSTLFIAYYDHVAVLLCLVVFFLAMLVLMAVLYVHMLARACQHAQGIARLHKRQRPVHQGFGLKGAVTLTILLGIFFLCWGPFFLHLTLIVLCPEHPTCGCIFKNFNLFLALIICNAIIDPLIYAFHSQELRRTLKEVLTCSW
T2 sequence (P32245 whole entry): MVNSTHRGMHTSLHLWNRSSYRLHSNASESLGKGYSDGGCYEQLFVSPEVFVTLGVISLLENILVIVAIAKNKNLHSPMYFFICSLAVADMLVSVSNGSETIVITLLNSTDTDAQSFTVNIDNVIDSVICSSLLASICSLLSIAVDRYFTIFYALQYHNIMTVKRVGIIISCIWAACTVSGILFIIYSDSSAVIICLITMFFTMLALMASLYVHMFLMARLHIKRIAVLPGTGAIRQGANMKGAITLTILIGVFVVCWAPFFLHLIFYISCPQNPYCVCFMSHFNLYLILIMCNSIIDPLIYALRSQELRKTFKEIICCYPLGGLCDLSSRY

IC50 (MCR-1; [1]): 8.98 µM
IC50 (MCR-4; [2]): 9.9 µM
Compound: CC(C)Cc1ccc(C(C)CNC(CN)CCCCN2Cc3ccccc3C(CNC3CCCCC3)C2c2ccccc2Br)cc1 (stereo not drawn) [Cmpd 240]

IC50 (MCR-1; [3]): 0.35 µM
IC50 (MCR-4; [3]): 9.1 µM
Compound: CCNc1ccc(C2C(CNCc3ccccc3)c3ccccc3CN2CCCCC(CN)NC)cc1 (stereo not drawn) [TRG 2407-50]

IC50 (MCR-1; [4]): 0.103 µM
IC50 (MCR-4; [5]): 4.82 µM
Compound: CCNc1ccc(C2C(CN)c3ccccc3CN2CCCC(CN)NCC2CC2CNC(C)C)cc1 (stereo not drawn) [TRG 2420-25]

IC50 (MCR-1; [6]): 1.56 µM
IC50 (MCR-4; [6]): 4.28 µM
Compound: CNCCNC(CN)CCCN1Cc2ccccc2C(CNC2CCCCC2)C1c1ccc(Cl)cc1Cl (stereo not drawn) [TRG 2408-74]

IC50 (MCR-1; [6]): 1.63 µM
IC50 (MCR-4; [6]): 7.49 µM
Compound: NCCNC(CN)CCCCN1Cc2ccccc2C(CNC2CCCCC2)C1c1ccc(Cl)cc1Cl (stereo not drawn) [TRG 2408-43]

IC50 (MCR-1; [7]): 4.14 µM
IC50 (MCR-4; [8]): 6.08 µM
Compound: CCCOc1ccc(C2C(CNCCc3cccc(Cl)c3)c3ccccc3CN2CCCCC(CN)NCc2ccccc2)cc1 (stereo not drawn) [TRG 2414-175]

IC50 (MCR-1; [3]): 0.7 µM
IC50 (MCR-4; [3]): 0.83 µM
Compound: CNC(CN)CCCCN1Cc2ccccc2C(CNCCCc2ccccc2)C1c1ccc(Cl)cc1Cl (stereo not drawn) [TRG 2407-26]

IC50 (MCR-1; [3]): 3.66 µM
IC50 (MCR-4; [3]): 2.1 µM
Compound: CNC(CN)CN1Cc2ccccc2C(CNCc2ccccc2O)C1c1cccc(Oc2ccccc2)c1 (stereo not drawn) [TRG 2406-9]

IC50 (MCR-1; [6]): 0.69 µM
IC50 (MCR-4; [6]): 20.7 µM
Compound: CCNc1ccc(C2C(CNC3CCCCC3)c3ccccc3CN2CCCC(CN)NC)cc1 (stereo not drawn) [TRG 2408-60]

IC50 (MCR-1; [3]): 0.44 µM
IC50 (MCR-4; [3]): 1.56 µM
Compound: CCNc1ccc(C2C(CNCc3ccccc3Cl)c3ccccc3CN2CCCCC(CN)NC)cc1 (stereo not drawn) [TRG 2407-52]

IC50 (MCR-1; [9]): 0.19 µM
IC50 (MCR-4; [10]): 1.03 µM
Compound: CCNc1ccc(C2C(CNCCc3ccccc3)c3ccccc3CN2CCCCC(CN)NCc2ccccc2)cc1 (stereo not drawn) [TRG 2411-43]

IC50 (MCR-1; [7]): 10.8 µM
IC50 (MCR-4; [8]): 9.87 µM
Compound: NCC(N)CCCCN1Cc2ccccc2C(CNCc2ccccc2C(F)(F)F)C1c1cccc(Oc2ccccc2)c1 (mixture of isomers) [TRG 2414-81]

IC50 (MCR-1; [1]): 5.56 µM
IC50 (MCR-4; [2]): 2.42 µM
Compound: COc1cccc(CNCC2c3ccccc3CN(CCCCC(N)CN)C2c2ccccc2Br)c1 (stereo not drawn) [Cmpd 217]

MC-1 IC50 (MCR-1; [7]): no fit
IC50 (MCR-4; [8]): 51.3 µM
Compound: CC(C)Cc1ccc(C(C)CNC(CN)CCCCN2Cc3ccccc3C(CNCc3ccccc3)C2c2cccc(Oc3ccccc3)c2)cc1 (stereo not drawn) [TRG 2414-112]

IC50 (MCR-1; [3]): 10.9 µM
IC50 (MCR-4; [3]): 21.2 µM
Compound: CNC(CN)CCCCN1Cc2ccccc2C(CNc2ccc(Cl)cc2)C1c1ccc(Cl)cc1Cl (stereo not drawn) [TRG 2407-8]

IC50 (MCR-1; [1]): 6.48 µM
IC50 (MCR-4; [2]): 5.46 µM
Compound: NCC(CCCCN1Cc2ccccc2C(CNCc2ccccc2)C1c1ccccc1Br)NCCc1ccccc1 (stereo not drawn) [Cmpd 230]

IC50 (MCR-1; TRG 2405 section, inhibition of binding of 125I-HP 467, HEK 293 cells expressing MCR-1): 4.81 µM
% Disp. MC-1 10 μM (MCR-1; first of duplicate): 68.4%
% Disp. MC-1 10 μM (MCR-1; second of duplicate): 57.5%
IC50 (MCR-4; TRG 2405 section, inhibition of binding of 125I-HP 467, HEK 293 cells expressing MCR-4): 10.2 µM
Compound: CNC(CN)CN1Cc2ccccc2C(CNC2CCCCC2)C1c1ccc([N+](=O)[O-])o1 (stereo not drawn) [TRG 2405-170]

IC50 (MCR-1; [4]): 0.11 µM
IC50 (MCR-4; [5]): 0.67 µM
Compound: CCNc1ccc(C2C(CNCCc3ccccc3)c3ccccc3CN2CCCC(CN)NCCc2ccc(OC)cc2)cc1 (stereo not drawn) [TRG 2411-157]

IC50 (MCR-1; [4]): 0.22 µM
IC50 (MCR-4; [5]): 1.95 µM
Compound: CCCCNc1ccc(C2C(CNC3CCCCC3)c3ccccc3CN2CCCC(CN)NCCc2ccc3ccccc3c2)cc1 (stereo not drawn) [TRG 2411-213]

IC50 (MCR-1; [7]): 7.98 µM
IC50 (MCR-4; [8]): 11 µM
Compound: CCCOc1ccc(C2C(CNCc3ccccc3C(F)(F)F)c3ccccc3CN2CCCCC(N)CN)cc1 (stereo not drawn) [TRG 2414-161]

IC50 (MCR-1; [6]): 1.19 µM
IC50 (MCR-4; [6]): 3.03 µM
Compound: NCC(N)CCCN1Cc2ccccc2C(CNC2CCCCC2)C1c1ccc(Cl)cc1Cl (stereo not drawn) [TRG 2408-71]

Compound: CCOc1ccc(CCNCC2c3ccccc3CN(CCCCC(CN)NCc3ccc(OC)cc3)C2c2cc(C(F)(F)F)cc(C(F)(F)F)c2)cc1 (stereo not drawn) [TRG 2421-24]
IC50 (MCR-1; [4]): 2.35 µM
IC50 (MCR-4; [5]): 2.26 µM

IC50 (MCR-1; [9]): 7.51 µM
IC50 (MCR-4; [10]): 16.9 µM
Compound: CNC(CN)CCCCN1Cc2ccccc2C(CNC2CCCCC2)C1c1ccc(NCc2ccc(OC)cc2)cc1 (stereo not drawn) [TRG 2409-18]

IC50 (MCR-1; [7]): 3.86 µM
IC50 (MCR-4; [8]): 0.63 µM
Compound: NCC(N)CCCCN1Cc2ccccc2C(CNC2CCCCC2)C1c1cc(C(F)(F)F)cc(C(F)(F)F)c1 (stereo not drawn) [TRG 2414-77]

IC50 (MCR-1; [7]): 1.8 µM
IC50 (MCR-4; [8]): 3.48 µM
Compound: COc1ccccc1CCNCC1c2ccccc2CN(CCCCC(CN)NCc2ccccc2)C1c1ccc(Cl)cc1Cl (mixture of isomers) [TRG 2414-11]

IC50 (MCR-1; [4]): 0.05 µM
IC50 (MCR-4; [5]): 7.77 µM
Compound: CCNc1ccc(C2C(CN)c3ccccc3CN2CCC[C@@H](CN)NCCCCOc2ccccc2)cc1 (stereo partly drawn) [2424#2]
